# Laboratory results: the METLIN SMRT retention time set (Domingo-Almenara et al. 2019)
# Assay: gradient 5% acetonitrile 3 min, to 50% in 2 min, to 85% in 15 min, held 3 min, 100 µL/min
# Conditions: column: Zorbax Extend-C18 2.1 x 50 mm; eluents: water / acetonitrile, 0.1% formic acid
# Procedure, shortened: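 The mobile phases were water and acetonitrile, each with 0.1% formic acid, pumped at 100 μL/min through a Zorbax Extend-C18 column (2.1 × 50 mm, 1.8 μm). Pure standards were injected as mixtures of ~100 molecules and detected by a quadrupole time-of-flight mass spectrometer in positive and negative ionization mode. Retention time came from computationally picked adduct peaks, each inspected by hand.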
row,SMILES,RP-LC retention time [s]
1,COc1cc(C2NCCc3c2[nH]c2ccccc32)ccc1OC(C)C (stereo not drawn),676
2,O=C(NCC1CCCO1)N1CCc2[nH]nc(-c3ccccc3)c2C1 (stereo not drawn),644
3,Cc1ccccc1NC(=O)Cn1nc2nc(N3CCCC(C)C3)ccn2c1=O (stereo not drawn),798
4,O=C(O)c1ccccc1-n1c2ccccc2c2ccccc21,1050
5,CN(C)c1cnc(-n2cc(NC(=O)CCCc3ccccc3)cn2)nc1,724
6,Cc1cc2nn(CC(=O)N(C)c3ccccc3)c(=O)n2c(Nc2ccccc2C)n1,922
7,COc1ccc(C2CC(=O)c3c(C)nc(N4CCN(c5ccccn5)CC4)nc3C2)cc1OC (stereo not drawn),676
8,COc1nn(C)cc1C(=O)Nc1cccc(-c2cn3c(n2)SCC3)c1,566
9,Nc1nc(Nc2ccccc2F)nc2cccc(F)c12,615
10,CCCC[C@H]1C(=O)O[C@H](C)[C@H](NC(=O)c2cccc(NC=O)c2OC)C(=O)O[C@@H](C)[C@@H]1OC(=O)CC(C)C,1190
11,CC(=O)Nc1ccc(N(Cc2nnc3n2CCCCC3)C(=O)Nc2ccc(Cl)cc2)cc1,690
12,COc1cc(NC(=O)COc2nc(C)nc3ccccc23)cc(OC)c1OC,649
13,O=C1C2N=NN(Cc3nc(-c4ccccc4Br)no3)C2C(=O)N1c1ccc(F)cc1 (stereo not drawn),960
14,Cc1ccc(S(=O)(=O)Nc2cc(C(=O)O)ccc2N2CCN(c3ccccn3)CC2)cc1,673
15,Cn1nccc1C(=O)Nc1ccsc1-c1nc(-c2ccc(Cl)cc2)no1,1430
16,CN(C)S(=O)(=O)c1ccc(C(=O)Nc2nc(-c3coc4ccccc34)cs2)cc1,1030
17,Cc1ccc(-c2nc(-c3ccc4c(c3)nnn4CCC(=O)N3CCCC3)no2)c(C)c1,1090
18,NC(=O)C1CCN(C(=O)c2ccc3c(c2)CCCN3S(=O)(=O)c2ccc(Cl)cc2)CC1,741

row,SMILES,RP-LC retention time [s]
1,O=C(Nc1ccc(-c2nc(-c3ccccc3)co2)cc1)C1CCCCC1,1210
2,CCc1cc(=O)n(CC(=O)NCc2ccc(F)cc2)c(N2CCOCC2)n1,717
3,CC(C)N1C(=O)c2cccnc2Sc2cc(C(=O)N3CCCCC3)ccc21,769
4,COCCNC(=O)N1c2ccccc2CC1c1nc(C(C)C)no1 (stereo not drawn),836
5,Cc1ccc(-c2csc3c(=O)n(Cc4ccccn4)cnc23)cc1,889
6,CC1(C(=O)Nc2ccc(F)c(Cl)c2)Oc2cccnc2NC1=O (stereo not drawn),730
7,CSc1ccc(CNC(=O)C2CCCN(c3ccnc(-c4ccc(F)cc4)n3)C2)cc1 (stereo not drawn),728
8,C=C1C(=O)OC2CC1C(OC(C)=O)C/C(C)=C/CC/C(C)=C\CCC2(C)O (stereo not drawn),917
9,CCS(=O)(=O)N1CCCc2cc(C(=O)NC(C)(C)C)ccc21,826
10,CC(=O)[C@@]1(O)[C@H](C)C[C@H]2[C@@H]3C=C(C)C4=Cc5c(cnn5-c5ccccc5)C[C@]4(C)[C@H]3[C@@H](O)C[C@@]21C,1200
11,c1ccc([C@@H]2CN(Cc3ccncc3)C[C@H]2COc2cccnc2)nc1,516
12,CCc1cccc(C)c1Nc1c(-c2ccc(C)cc2)nc2ncccn12,878
13,CCOC(=O)c1noc2nc(C)nc(Nc3ccc(OCC)cc3)c12,1130
14,Cc1cc(C)cc(C(=O)N2CCc3[nH]nc(C(=O)N(C)C)c3C2)c1,655
15,Cc1ccc(-c2noc(-c3ccccc3S(=O)(=O)N3CCN(c4ncccn4)CC3)n2)cc1,1160
16,CCN1C(=O)c2cccnc2Sc2cc(CNC(=O)COc3ccccc3)ccc21,798
17,Cc1nn(C(=O)c2cccnc2)c(C)c1Sc1ccccc1[N+](=O)[O-],916

# Further lines, results first:
row,RP-LC retention time [s],SMILES
1,733,COCCN(CCOC)C(=O)Cc1csc(NC(=O)Nc2ccc(Cl)cc2)n1
2,779,CC(=O)c1ccc(OC(=O)c2cc3c(C)nn(-c4cccc(F)c4)c3s2)cc1
3,707,CCn1c(=O)c(N2CCC(NC(=O)NCCCOC)CC2)nc2ccccc21
4,859,Cc1cc(C)n(-c2nc(C)c(C(=O)N(CCO)Cc3ccccc3)s2)n1
5,999,O=C(Cn1cnc2c(sc3nc(-c4ccccc4)ccc32)c1=O)Nc1ccc(F)cc1F
6,603,NC(=O)C1CCN(C(=O)c2nnn(-c3ccccc3Cl)c2-c2ccncc2)CC1
7,780,COc1ccc(NC(=O)Cn2c(=O)c(CCC(=O)NCC(C)C)nc3ccccc32)c(OC)c1
8,723,O=C(CSc1ccncc1)N1CCc2cc(-c3csc(C4CC4)n3)ccc21
9,829,Cc1ccccc1CN1C[C@@H]2C(=O)N(CCc3ccccc3)C(=O)[C@@H]2C1
10,620,COCCn1c(C(CNc2cccc(C)c2)CC(=O)O)nc2ccccc21 (stereo not drawn)
11,726,CCN(CC)c1ncc2c(n1)CCC(C(=O)Nc1ccc(OC)cc1OC)C2 (stereo not drawn)
12,961,Cc1nc(-c2ccc3c(c2)CCN3C(=O)c2ccc(F)cc2)cs1
13,538,CCCNc1cc(N2CCC(CCC(=O)N(CC)CC)CC2)ncn1
14,690,COc1ccc(NC(=O)N2CCC(c3noc(-c4cccnc4)n3)C2)cc1 (stereo not drawn)
15,849,CCOC(=O)Cc1ccc(NC(=O)N2CCCn3nc(-c4cccs4)cc3C2)cc1
16,634,O=C(c1cc(=O)n2c(nc3ccccc32)s1)N1CCN(c2ccccn2)CC1
17,782,O=C(Nc1ccccc1)N1CCC(n2cnc3ccc(Cl)cc3c2=O)CC1
18,795,COc1cccc(NC(=O)c2cnc3c(c2)c(=O)n(C)c(=O)n3C)c1
19,731,O=C1CCCN1Cc1noc(-c2ccccc2)n1
20,678,COC(=O)c1ccc(NC(=O)c2c(OC)cc(=O)n3c2CCCC3)cc1
21,770,CC(C)n1cnc2ccc(-c3noc(COc4ccccc4)n3)cc21
22,872,O=C1NC2(CCN(C(=O)Nc3ccc(Cl)cc3)CC2)N=C1c1cccc(F)c1
23,657,O=C(Nc1ccc(N2CCCCCC2)c(C(=O)O)c1)c1cccs1
24,647,CCCNC(=O)c1nc2cccnc2n(C)c1=O
25,815,Cn1ncc2c3ccccc3n(CCCC(=O)NCCc3c[nH]c4ccccc34)c2c1=O
26,762,OCc1ncc(-c2ccccc2)s1
27,1160,C=CCn1nnc(NCc2ccc(-c3ccc(Cl)cc3Cl)o2)n1

row,RP-LC retention time [s],SMILES
1,701,Cc1ccc(CNC(=O)C2CCCN(c3cc(=O)n(C)c(=O)n3C)C2)cc1 (stereo not drawn)
2,603,CC1(C)CNc2cc(NC(=O)c3cccnc3NCc3ccncc3)ccc21
3,819,CCC1CCCCN1C(=O)CSc1n[nH]c(-c2ccccc2)n1 (stereo not drawn)
4,942,CCc1ccc(S(=O)(=O)Nc2cccc(-c3nc4cccnc4s3)c2C)s1
5,713,O=C(NCCC1CCN(C(=O)Nc2ccccc2F)CC1)c1ccoc1
6,782,O=C(CSc1ccc(-c2ccc3c(c2)OCO3)nn1)Nc1ccc2c(c1)OCCO2
7,585,COCCN(C)C(=O)c1cn(C2CN(S(=O)(=O)c3cn(C)cn3)C2)nn1
8,813,Cc1nn(CC(=O)NCc2cccs2)c(=O)c2nc(-c3ccccc3)sc12
9,902,CC(C)c1ccc(S(=O)(=O)N2CCC(c3cc(N)on3)CC2)cc1
10,506,CN1CCCC1c1nc(C2CN(C(=O)c3ccn[nH]3)C2)no1 (stereo not drawn)
11,1150,O=C(Nc1ccc(Cl)cc1)N1CCN(c2nc3ccccc3nc2C(F)(F)F)CC1
12,559,CC(=O)N1CCC(n2c(C)nc(C(=O)N3CCCCC3)c2C)CC1
13,907,Cc1ccc(-n2c(=O)n(CC(=O)Nc3cccc(C)c3C)c3cccnc32)cc1
14,810,COc1cc(OC)cc(C(=O)N2CCC3(CC2)N=C(c2ccccc2)NO3)c1
15,971,CN(CCc1noc(COc2ccc(F)cc2)n1)C(=O)Nc1cccc(Br)c1
16,763,COc1cc([C@@H]2c3cc4c(cc3[C@H](O)[C@@H](CO)[C@@H]2C(=O)Nc2ccc(C)cc2)OCO4)cc(OC)c1OC
17,950,CCOC(=O)c1ccc(N2C=C(C(=O)N3CCCC3)S(=O)(=O)c3ccc(Cl)cc32)cc1
18,739,O=C(NCc1cscn1)C1CCN(S(=O)(=O)c2ccc(Cl)s2)CC1
19,912,CCn1ncc(Cl)c1C(=O)N1CCCC1c1ccc(F)cc1 (stereo not drawn)
20,689,Cc1cc(=O)n(CC(=O)Nc2cc(F)ccc2C)c(N2CCOCC2)n1
21,883,CCOc1ccc(CC(=O)N2CCN(c3ccc(-c4nc(C)cs4)cn3)CC2)cc1
22,742,Cc1noc(C)c1S(=O)(=O)NCC1CCN(C(=O)Nc2ccc(F)cc2)CC1
23,763,CCc1nnc(-c2ccc3ccn(CC(=O)Nc4ccc(OC)cc4)c3c2)o1
24,976,CC1(C)CC(=O)c2cn(-c3ccccc3)c(=O)c(C(=O)Nc3ccc4c(c3)OCCO4)c2C1
25,1130,Cc1nnc2nc(-c3ccccc3)nc(-c3ccccc3)n12
26,979,CC(C)c1cc(C(=O)NC2CCCC2)nc2ccnn12
